From EP2649983A1, “Compounds which inhibit neuronal exocytosis (II)” (Lipotec, S.A., priority 2012, dated 2013)
Residues, ends and D or L forms follow the SMILES beside them. No end group written: not given here. *: point of attachment. Palmitoyl = CCCCCCCCCCCCCCCC(=O)*; NHhexadecyl = CCCCCCCCCCCCCCCCN*; Myristoyl = CCCCCCCCCCCCCC(=O)*

Columns and labels:
SNARE complex [1] = experiment: Inhibition of SNARE complex formation (competition versus SNAP-25), complex detected by ELISA; assay type: binding
Experimental: With the aim of determining the capacity of inhibition of the SNARE complex formation by the compounds of the invention, the competitive inhibition of the compounds compared to SNAP-25 was studied with regards to the formation of this complex. The proportion of SNARE complex formed was determined by the ELISA technique, using one of the proteins from the complex bound to GST. In a 96-well plate VAMP was immobilized (using a 0.037 µM solution) and subsequently the free spaces were blocked with BSA (3%). Parallel to this process, SNAP-25 bound to GST (0.0185 µM), syntaxin (0.037 µM) and a compound of the invention (2.5 mM and 0.5 mM compounds) were incubated for 1 hour. After incubation, the samples were transferred to the plate with immobilized VAMP and were incubated for 1 hour to allow the formation of the SNARE complex. Afterward, the plate was washed and the complex was detected by a primary antibody anti-GST (Antibody anti-GST epitope TAG, Fisher Cat. no:PA1-982A). The reading was carried out at a wavelength of 490 nm in a TECAN GENios spectrophotometric reader.
Table 4 showns the results of the competitive inhibition of the formation of the SNARE complex by the compounds of the invention versus SNAP-25. The percentage of inhibition of the formation of the complex is inversely proportional to the quantity of SNARE complex spectrophotometrically detected.

SNARE complex [2] = experiment: Inhibition of SNARE complex formation, complex detected by electrophoresis (SDS-PAGE); assay type: binding
Experimental: VAMP (6 µM), syntaxin (6 µM) and the compound of the invention (5 mM or 1 mM compounds) were incubated for 3 hours. Subsequently, SNAP-25 (0.6 µM) was added and the mixture was incubated for an additional 15 hours to allow the formation of the SNARE complex. After incubation, the loading buffer (Laemli Simple Buffer) was added and the mixture was analyzed by 10% acrylamide SDS-PAGE in gel. The amount of complex was determined by MediaCybernetics image analysis software Image-Pro Plus.
The percentage of inhibition of the formation of the complex is inversely proportional to the quantity of SNARE complex detected.

[3] = test system: human neuroblastoma cell line; experiment: Release of noradrenaline induced by TPA/ionomycin in a neuroblastoma cell line, quantified by ELISA; assay type: cell-based; conditions: 60 minutes pre-incubation, TPA/ION = 100.00
Experimental: The induction of the release of noradrenaline with TPA (12-O-tetradecanoylphorbol-13-acetate)/lonomycin enables direct measurement of neuronal exocytosis. For the study of the inhibitory effect of the compounds of the invention on the release of noradrenaline, cells of a human neuroblastoma cell line were pre-incubated (1x10^6 cells/well) for 60 minutes with the compound of the invention (1 µM, 10 µM, 100 µM, 500 µM or 1 mM compounds), and afterward the release of noradrenaline was induced. The release of the noradrenaline neurotransmitter was induced by an 8 minute pretreatment with a solution of 12-O-tetradecanoylphorbol-13-acetate (TPA) 100 nM, which mobilized the intracellular vesicles which contained the neurotransmitter; followed by a 5 minute incubation with TPA/lonomycin (100 nM/10 µM), which induced the release of the neurotransmitter contained in these vesicles. […] For this, absorbance at 405 nm was measured in Thermo Scientific Multiskan Ascent equipment.
The blocking of the SNARE complex by the compounds of the invention lead to an inhibition of neuronal exocytosis and therefore, a decrease in the levels of released noradrenaline (Table 6).

[4] = concentration of compound 0.5 mM
[5] = concentration of compound 2.5 mM

Compound: CCCCCCCCCCCCCCCC(=O)N[C@@H](CC(=O)O)C(=O)N[C@@H](Cc1c[nH]cn1)C(=O)N[C@@H](Cc1ccccc1)C(=O)N[C@@H](CCC(N)=O)C(=O)N[C@@H](CCC(N)=O)C(=O)N[C@@H](CCCNC(=N)N)C(=O)N[C@@H](CCSC)C(N)=O [Palm-SEQ ID NO:24-NH2] (Palmitoyl-DHFQQRM-NH2)
- % inhibition formation SNARE complex (SNARE complex [1]; [4]): 36%
- % inhibition formation SNARE complex (SNARE complex [2]; concentration of compound 1 mM): 17%
- % inhibition formation SNARE complex (SNARE complex [2]; concentration of compound 5 mM): 66%

Compound: CCCCCCCCCCCCCCCC(=O)N[C@@H](CC(N)=O)C(=O)N[C@@H](Cc1c[nH]cn1)C(=O)N[C@@H](Cc1ccccc1)C(=O)N[C@@H](CC(C)C)C(=O)N[C@@H](CC(N)=O)C(=O)N[C@@H](Cc1c[nH]c2ccccc12)C(=O)N[C@@H](CCSC)C(N)=O [Palm-SEQ ID NO:15-NH2] (Palmitoyl-NHFLNWM-NH2)
- % inhibition formation SNARE complex (SNARE complex [1]; [5]): 21%
- % inhibition formation SNARE complex (SNARE complex [2]; concentration of compound 1 mM): 22%
- % inhibition formation SNARE complex (SNARE complex [2]; concentration of compound 5 mM): 74%

Compound: Ac-EHLKQWM [Ac-SEQ ID NO:1-OH]
- % inhibition formation SNARE complex (SNARE complex [1]; [4]): 29%

Compound: CCCCCCCCCCCCCCCC(=O)N[C@@H](CCC(=O)O)C(=O)N[C@@H](CC(=O)O)C(=O)N[C@@H](CC(C)C)C(=O)N[C@@H](CCCCN)C(=O)N[C@@H](CCCNC(=N)N)C(=O)N[C@@H](Cc1c[nH]c2ccccc12)C(=O)N[C@@H](CCSC)C(N)=O [Palm-SEQ ID NO:14-NH2] (Palmitoyl-EDLKRWM-NH2)
- % inhibition formation SNARE complex (SNARE complex [2]; concentration of compound 5 mM): 93%

Compound: CCCCCCCCCCCCCCCC(=O)N[C@@H](CC(=O)O)C(=O)N[C@@H](Cc1c[nH]cn1)C(=O)N[C@@H](Cc1ccccc1)C(=O)N[C@@H](CC(C)C)C(=O)N[C@@H](CC(=O)O)C(=O)N[C@@H](Cc1c[nH]c2ccccc12)C(=O)N[C@@H](CCSC)C(N)=O [Palm-SEQ ID NO:25-NH2] (Palmitoyl-DHFLDWM-NH2)
- % inhibition formation SNARE complex (SNARE complex [1]; [5]): 53%
- % inhibition formation SNARE complex (SNARE complex [2]; concentration of compound 1 mM): 36%

Compound: CCCCCCCCCCCCCCCC(=O)N[C@@H](CCC(=O)O)C(=O)N[C@@H](Cc1c[nH]cn1)C(=O)N[C@@H](CC(C)C)C(=O)N[C@@H](CCCCN)C(=O)N[C@@H](CCC(N)=O)C(=O)N[C@@H](Cc1c[nH]c2ccccc12)C(=O)N[C@@H](CCSC)C(N)=O [Palm-SEQ ID NO:1-NH2] (Palmitoyl-EHLKQWM-NH2)
- % inhibition formation SNARE complex (SNARE complex [1]; [4]): 21%
- % inhibition formation SNARE complex (SNARE complex [1]; [5]): 47%

Compound: Ac-EDLKRWM-NH2 [Ac-SEQ ID NO:14-NH2]
- % RELEASED NORADRENALINE Average ([3]; 10 µM): 84.96%
- % RELEASED NORADRENALINE Average ([3]; 100 µM): 85.97%
- % RELEASED NORADRENALINE Average ([3]; 1000 µM): 45.78%

Compound: CCCCCCCCCCCCCCCC(=O)N[C@@H](CC(=O)O)C(=O)N[C@@H](Cc1c[nH]cn1)C(=O)N[C@@H](Cc1ccccc1)C(=O)N[C@@H](CC(C)C)C(=O)N[C@@H](CC(N)=O)C(=O)N[C@@H](Cc1c[nH]c2ccccc12)C(=O)N[C@@H](CCSC)C(N)=O [Palm-SEQ ID NO:34-NH2] (Palmitoyl-DHFLNWM-NH2)
- % inhibition formation SNARE complex (SNARE complex [1]; [5]): 51%

Compound: EHLKQWM-NH2 [H-SEQ ID NO:1-NH2]
- % inhibition formation SNARE complex (SNARE complex [1]; [4]): 30%
- % inhibition formation SNARE complex (SNARE complex [1]; [5]): 58%

Compound: CCCCCCCCCCCCCCCCNC(=O)[C@H](CCSC)NC(=O)[C@H](Cc1c[nH]c2ccccc12)NC(=O)[C@H](CCCNC(=N)N)NC(=O)[C@H](CCCCN)NC(=O)[C@H](CC(C)C)NC(=O)[C@H](CC(=O)O)NC(=O)[C@H](CCC(=O)O)NC(C)=O [Ac-SEQ ID NO:14-NH-(CH2)15-CH3] (Ac-EDLKRWM-NHhexadecyl)
- % inhibition formation SNARE complex (SNARE complex [1]; [5]): 35%

Compound: Ac-DHFQQRM-NH2 [Ac-SEQ ID NO:24-NH2]
- % RELEASED NORADRENALINE Average ([3]; 1 µM): 90.63%
- % RELEASED NORADRENALINE Average ([3]; 10 µM): 97.06%
- % RELEASED NORADRENALINE Average ([3]; 100 µM): 88.95%
- % RELEASED NORADRENALINE Average ([3]; 500 µM): 78.11%
- % RELEASED NORADRENALINE Average ([3]; 1000 µM): 67.90%

Compound: Ac-DHFLDWM-NH2 [Ac-SEQ ID NO:25-NH2]
- % RELEASED NORADRENALINE Average ([3]; 1 µM): 99.59%
- % RELEASED NORADRENALINE Average ([3]; 10 µM): 94.48%
- % RELEASED NORADRENALINE Average ([3]; 100 µM): 74.79%
- % RELEASED NORADRENALINE Average ([3]; 500 µM): 48.07%
- % RELEASED NORADRENALINE Average ([3]; 1000 µM): 41.05%

Compound: CCCCCCCCCCCCCCCC(=O)N[C@@H](CCC(N)=O)C(=O)N[C@@H](Cc1c[nH]cn1)C(=O)N[C@@H](CC(C)C)C(=O)N[C@@H](Cc1c[nH]cn1)C(=O)N[C@@H](CC(N)=O)C(=O)N[C@H](C(=O)N[C@@H](CCSC)C(N)=O)C(C)C [Palm-SEQ ID NO:3-NH2] (Palmitoyl-QHLHNVM-NH2)
- % inhibition formation SNARE complex (SNARE complex [1]; [5]): 51%

Compound: CCCCCCCCCCCCCC(=O)N[C@@H](CC(N)=O)C(=O)N[C@@H](Cc1c[nH]cn1)C(=O)N[C@@H](Cc1ccccc1)C(=O)N[C@@H](CC(C)C)C(=O)N[C@@H](CC(N)=O)C(=O)N[C@@H](Cc1c[nH]c2ccccc12)C(=O)N[C@@H](CCSC)C(N)=O [Myr-SEQ ID NO:15-NH2] (Myristoyl-NHFLNWM-NH2)
- % inhibition formation SNARE complex (SNARE complex [2]; concentration of compound 1 mM): 23%
- % inhibition formation SNARE complex (SNARE complex [2]; concentration of compound 5 mM): 76%

Compound: Ac-EHLKQWM-NH2 [Ac-SEQ ID NO:1-NH2]
- % RELEASED NORADRENALINE Average ([3]; 1 µM): 96.14%
- % RELEASED NORADRENALINE Average ([3]; 10 µM): 93.07%
- % RELEASED NORADRENALINE Average ([3]; 100 µM): 79.59%
- % RELEASED NORADRENALINE Average ([3]; 500 µM): 49.08%
- % RELEASED NORADRENALINE Average ([3]; 1000 µM): 42.48%
